In ChEMBL document CHEMBL4052796, “Design, synthesis and biological evaluation of dual acetylcholinesterase and phosphodiesterase 5A inhibitors in treatment for Alzheimer's disease” (Bioorg Med Chem Lett, 2017):

How the values were obtained:
A549 = test: Cytotoxicity against human A549 cells at 50 ug/ml after 24 hrs by CCK-8 assay; type: cell-based; details: a549, 24 h
Acetylcholinesterase = Acetylcholinesterase (Homo sapiens, UniProt P22303); test: Inhibition of AChE (unknown origin) using acetylthiocholine as substrate by Ellman's method
[1] = biological target: cGMP-specific 3',5'-cyclic phosphodiesterase (Homo sapiens, UniProt O76074); test: Inhibition of human PDE5A preincubated for 30 mins followed by TMB substrate addition by spectrophotometry

Acetylcholinesterase, sequence (P22303 whole entry): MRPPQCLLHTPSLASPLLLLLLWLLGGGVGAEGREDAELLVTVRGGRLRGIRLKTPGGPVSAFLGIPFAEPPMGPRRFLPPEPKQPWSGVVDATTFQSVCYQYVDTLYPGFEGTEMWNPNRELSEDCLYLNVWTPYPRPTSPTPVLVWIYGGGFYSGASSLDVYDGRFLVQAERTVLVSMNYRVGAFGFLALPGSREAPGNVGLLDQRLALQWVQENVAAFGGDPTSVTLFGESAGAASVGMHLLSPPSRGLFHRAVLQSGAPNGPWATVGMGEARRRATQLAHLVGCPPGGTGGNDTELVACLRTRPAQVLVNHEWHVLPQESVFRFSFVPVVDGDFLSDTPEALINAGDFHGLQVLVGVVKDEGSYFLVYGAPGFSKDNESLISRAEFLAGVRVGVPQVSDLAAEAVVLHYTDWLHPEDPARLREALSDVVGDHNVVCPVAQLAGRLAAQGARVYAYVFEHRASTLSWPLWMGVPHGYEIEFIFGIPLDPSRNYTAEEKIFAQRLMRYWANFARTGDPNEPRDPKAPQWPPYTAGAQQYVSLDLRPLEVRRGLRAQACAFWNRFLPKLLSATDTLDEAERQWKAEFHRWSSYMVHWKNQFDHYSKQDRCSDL

O=C1C(=O)N(C(=O)c2ccccc2)c2ccc(CN3CCCCC3)cc21
Activity (A549): Non-Toxic
IC50 (Acetylcholinesterase): 0.0794 µM
IC50 [1]: 50 µM

O=C(Nc1ccc(CN2CCOCC2)cc1C(=O)C(=O)N1C(=O)CCC1=O)c1ccccc1
IC50 (Acetylcholinesterase): 0.229 µM

O=C(O)CCC(=O)NCc1ccc2c(c1)CC(=O)N2C(=O)c1ccccc1
IC50 (Acetylcholinesterase): > 1 µM
IC50 [1]: 17.6 µM

O=C1C(=O)N(C(=O)c2ccccc2)c2ccc(CNc3ccc(Br)cc3)cc21
IC50 (Acetylcholinesterase): 0.398 µM

CCN(CC)Cc1ccc(NC(=O)c2ccccc2)c(C(=O)C(=O)N(CC)CC)c1
Activity (A549): Non-Toxic
IC50 (Acetylcholinesterase): 0.0447 µM
IC50 [1]: 158 µM

Cc1ccc2c(c1)C(=O)C(=O)N2C(=O)N(C)C
Activity (A549): Non-Toxic
IC50 (Acetylcholinesterase): 0.144 µM
IC50 [1]: 100 µM

COC(=O)C(=O)c1cc(C)ccc1NC(=O)c1ccccc1
IC50 (Acetylcholinesterase): > 1 µM

Cc1ccc2c(c1)CC(=O)N2C(=O)c1ccccc1
IC50 (Acetylcholinesterase): > 1 µM
IC50 [1]: 91.2 µM

COc1ccc(NCc2ccc3c(c2)C(=O)C(=O)N3C(=O)c2ccccc2)cc1
IC50 (Acetylcholinesterase): 0.17 µM
IC50 [1]: 100 µM

Cc1ccc2c(c1)C(=O)C(=O)N2C(=O)c1ccccc1
IC50 (Acetylcholinesterase): > 1 µM
IC50 [1]: 746 µM

O=C1C(=O)N(Cc2ccc(Br)cc2)c2ccc(Br)cc21
IC50 (Acetylcholinesterase): 0.0891 µM
IC50 [1]: 131 µM

CN1CCN(Cc2ccc3c(c2)C(=O)C(=O)N3C(=O)c2ccccc2)CC1
IC50 (Acetylcholinesterase): 0.0479 µM
IC50 [1]: > 1000 µM

Cc1ccc2c(c1)C(=O)C(=O)N2Cc1ccccc1[N+](=O)[O-]
IC50 (Acetylcholinesterase): 0.2 µM
IC50 [1]: 200 µM

O=C1C(=O)N(Cc2ccccc2[N+](=O)[O-])c2ccc(Br)cc21
IC50 (Acetylcholinesterase): 0.263 µM

Cc1ccc2c(c1)C(=O)C(=O)N2Cc1ccc(Br)cc1
IC50 (Acetylcholinesterase): 0.204 µM
